According to patent US20230391748A1, “BICYCLIC INHIBITORS OF IRAK” (priority 2022, published 2023):
Like-named read-outs stand apart in the source and are kept apart here.

Tests used:
[1] = tested on: TNF-α in Human Primary Monocyte-Derived Dendritic Cells; experiment: Gardiquimod-Induced TNF-α in Human Primary Monocyte-Derived Dendritic Cells; format: cell-based; details: Dendritic cell
Procedure: Gardiquimod-Induced TNF-α in Human Primary Monocyte-Derived Dendritic Cells
After 2 hours, the media including floating cells was carefully removed and 12 ml of fresh RPMI media (10% FBS) containing GM-CSF (100 ng/ml) and IL-4 (20 ng/ml) were added to the adherent monocytes. The monocytes were allowed to differentiate for 7 days at 37° C., 5% CO2 for 7 days, supplementing with fresh GM-CSF and IL-4 after 3 days. The differentiated dendritic cells (DC) were harvested by centrifugation (1200 rpm/5 min). The DCs were primed at 37° C., 5% CO2 for 24 hours with 50 ng/ml IFN-γ (1000 U/ml) at 50K/well in 100 μl/well of fresh RPMI media (10% FBS) in a white clear bottom 96 well plate.
The primed DCs were pre-incubated with test compound for 1 hour at 37° C., 5% CO2 by adding 100 μl of RPMI media containing 2× concentrated test compound per well (0.5% final DMSO concentration).
DCs were stimulated with Gardiquimod (10 μl per well of 20× concentrated Gardiquimod solution in RPMI media to give a final concentration of 4 μg/ml) at 37° C., 5% CO2 for an additional 6 hours. The supernatant (100 μl/well) was harvested to measure TNF-α by ELISA. […] The chemiluminescence values were entered into Athena (Rigel) for curve fitting, EC50 calculation, and database storage.
(§1) TNF-α ELISA was performed according to the vendor protocol, using 96 Well Flat-Bottom, MaxiSorp Black Immuno plates and 100 μL/well of supernatant. The plates were developed using 100 μL/well of Super Signal ELISA Pico Chemiluminescent Substrate. The plates were read with a luminometer, and the chemiluminescence values were entered into Athena (Rigel) for curve fitting, EC50 calculation, and database storage.

IL23p19 in THP-1 Cells = experiment: LPS Induced IL23p19 in THP-1 Cells (with IFNγ Primed) Assay; format: cell-based; details: Homo sapiens, THP-1, 18 h, read-out: IL23 (THP, LPS) (IC50, μM)
Procedure: LPS Induced IL23p19 in THP-1 Cells (with IFNγ Primed) Assay
On day 1, 50K/well THP-1 cells were seeded and primed with IFNγ (50 ng/mL) in 384-well plates for about 18 hours in RPMI media with 10% FBS. […] 50 μL/well 2× compound was added to 50 μL/well THP-1 cells (with IFNγ primed) in duplicate in 384 well tissue culture plates. […] Day 3, after stimulation for 18 hours at 37° C., 5% CO2, the assay plate was centrifuged and 70 μL/well supernatant was harvested. IL-23p19 protein in 70 µL/well of supernatant was measured by sandwich ELISA, and 25 μl/well Cell Titer Glo reagent was added to the remaining cells to measure compound toxicity.
Maxisorp immuno ELISA plates were pre-coated with 25 μL/well of anti-IL-23p19 capture antibody (2.5 ug/mL) in PBS overnight at room temperature. […] 25 μL/well of biotin labeled anti-IL-12(p40/p70) detection antibody (100 ng/mL) in PBS with 1% BSA was added and the plates were incubated at room temperature for 2 hours with shaking. […] The plates were read with a luminometer, and the chemiluminescence values were entered into Athena (Rigel) for curve fitting, EC50 calculation, and database storage.

IRAK4 = IRAK4 (Homo sapiens (Human), UniProt Q9NWZ3); experiment: IRAK4 ADP-Glo Assay; format: biochemical; details: MBP substrate
IRAK4, sequence (Q9NWZ3 whole entry): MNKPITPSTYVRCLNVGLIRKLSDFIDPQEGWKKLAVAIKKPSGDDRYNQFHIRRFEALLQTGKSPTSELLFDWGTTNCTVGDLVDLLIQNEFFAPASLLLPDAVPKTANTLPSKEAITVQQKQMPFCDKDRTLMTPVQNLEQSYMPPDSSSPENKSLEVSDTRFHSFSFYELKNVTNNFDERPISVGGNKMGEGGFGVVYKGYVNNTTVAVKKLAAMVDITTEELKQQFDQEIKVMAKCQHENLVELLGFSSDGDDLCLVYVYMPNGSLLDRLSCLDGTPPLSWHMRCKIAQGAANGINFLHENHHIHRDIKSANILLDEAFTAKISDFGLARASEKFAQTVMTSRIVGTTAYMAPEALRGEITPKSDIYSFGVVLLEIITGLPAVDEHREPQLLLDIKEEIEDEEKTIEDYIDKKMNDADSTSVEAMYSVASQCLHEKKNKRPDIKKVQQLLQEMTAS
Procedure: The ADP-Glo™ reagents were thawed at ambient temperature. The Kinase Detection Reagent was prepared by mixing kinase detection buffer with the lyophilized kinase detection substrate, and set aside.
A stock volume of 5× Reaction Kinase Buffer was made with a final concentration of 100 mM MgCl2, 200 mM Tris-HCl, and 0.5 mg/ml of BSA, in distilled H2O with a final pH7.4. A 2× working stock volume of Reaction Kinase Buffer was made containing a final concentration of 100 μM DTT.
The components of IRAK4 Enzyme were thawed on ice. Diluted IRAK4 in 1× Kinase Reaction Buffer (diluted from 2× buffer) was prepared at 5.0 ng/μl.
Then diluted 1:5 in 2× Reaction Buffer in a 96 well plate. 1.0 μl was transferred to a 384 well plate in duplicate. […] 1 μl of 1 mg/ml stock solution of MBP substrate was added NOTE: MBP can be combined with ATP mix with equal volume and then added at 2 μl/well. Final reaction volume was 5 μl.
The plate was centrifuged and the reaction mixture was incubated at room temperature for 60 minutes or at 30° C. for 30 minutes.
The reaction was terminated and the remaining ATP was depleted by adding 5 μl of ADP-Glo™ Reagent. The 384-well plate was centrifuged and then the reaction mixture was incubated for another 40 minutes at ambient temperature.
10 μl of the Kinase Detection Reagent was added. The plate was centrifuged and then the reaction mixture was incubated for another 30 minutes at ambient temperature.
The 384-well reaction plate was read using the WALLAC plate reader (Luminescence 0.1s).

TNF-α in human PBMCs = experiment: R848-induced TNF-α in human PBMCs Assay; format: cell-based; details: Homo sapiens, PBMC, 4 h, read-out: TNFα (PBMC, R848) (IC50, μM)
Procedure: R848-induced TNF-α in human PBMCs Assay
100 μL/well PBMCs (200K/well) were seeded in 96-well flat-bottom tissue culture plates. […] 100 μL/well 2× compound was added to the PBMC in the tissue culture plates. […] The cells were stimulated with R848 for an additional 4 hours at 37° C., 5% CO2. The supernatant (100 μl/well) was harvested to measure TNF-α by ELISA. […] The chemiluminescence values were entered into Athena (Rigel) for curve fitting, EC50 calculation, and database storage.
as §1

[2] = IFNγ-primed monocyte-derived dendritic cells, 4 μg/ml Gardiquimod, 6 hours, TNF-α ELISA, read-out: TNFα (DC, GARD) (IC50)

| SMILES | IC50 [1, 2] | IC50 (IL23p19 in THP-1 Cells) | IC50 (IRAK4) | IC50 (TNF-α in human PBMCs) | IC50 ([1]; 6 h, read-out: TNFα (DC, GARD) (IC50, μM)) |
| --- | --- | --- | --- | --- | --- |
| CNC(=O)N1CC(C#Cc2cnc(OC[C@@H]3CCC(=O)N3)c3cc(OC(C)C)c(C(N)=O)cc23)C1 [Compound I-29, (S)-7-isopropoxy-4-((1-(methylcarbamoyl)azetidin-3-yl)ethynyl)-1-((5-oxopyrrolidin-2-yl)methoxy)isoquinoline-6-carboxamide] | 1.75 µM | 4.25 µM | 5.5 nM | 0.686 µM |  |
| CC(C)Oc1cc2c(OC[C@@H]3CCC(=O)N3)ncc(C#CC3CCNCC3)c2cc1C(N)=O [Compound I-17, (S)-7-isopropoxy-1-((5-oxopyrrolidin-2-yl)methoxy)-4-(piperidin-4-ylethynyl)isoquinoline-6-carboxamide] | 17.2 µM | 11.2 µM | 1.7 nM | 1.33 µM |  |
| CC(C)Oc1cc2c(O[C@@H]3CCCNC3)ncc(C#CCC3CCOCC3)c2cc1C(N)=O [Compound I-87, (R)-7-isopropoxy-1-(piperidin-3-yloxy)-4-(3-(tetrahydro-2H-pyran-4-yl)prop-1-yn-1-yl)isoquinoline-6-carboxamide] | 0.776 µM | 5.02 µM | 52.2 nM | 1.97 µM |  |
| CC(C)Oc1cc2c(O[C@@H]3CCCN(C(=O)CC#N)C3)ncc(C#CC3CCNCC3)c2cc1C(N)=O [Compound I-96, (R)-1-((1-(2-cyanoacetyl)piperidin-3-yl)oxy)-7-isopropoxy-4-(piperidin-4-ylethynyl)isoquinoline-6-carboxamide] | 1.17 µM | 7.84 µM | 8 nM | 1.71 µM |  |
| CC(C)Oc1cc2c(OC[C@@H]3CC(F)(F)C(=O)N3)ncc(C#CC3CCN(C(=O)OC(C)(C)C)CC3)c2cc1C(N)=O [Compound I-54, tert-butyl (S)-4-((6-carbamoyl-1-((4,4-difluoro-5-oxopyrrolidin-2-yl)methoxy)-7-isopropoxyisoquinolin-4-yl)ethynyl)piperidine-1-carboxylate] | 1.71 µM | 2.97 µM | 113 nM | 2.75 µM |  |
| CC(C)Oc1cc2c(OC[C@@H]3CCC(=O)N3)ncc(Br)c2cc1C(N)=O [Compound I-1, (S)-4-bromo-7-isopropoxy-1-((5-oxopyrrolidin-2-yl)methoxy)isoquinoline-6-carboxamide] |  | 9.48 µM | 34 nM | 2.61 µM | 2.64 µM |
| CC(C)Oc1cc2c(OC[C@@H]3CC(F)(F)C(=O)N3)ncc(C#CC3(O)CCOCC3)c2cc1C(N)=O [Compound I-51, (S)-1-((4,4-difluoro-5-oxopyrrolidin-2-yl)methoxy)-4-((4-hydroxytetrahydro-2H-pyran-4-yl)ethynyl)-7-isopropoxyisoquinoline-6-carboxamide] | 1.03 µM | 1.27 µM | 5.3 nM | 0.391 µM |  |
| CC(C)Oc1cc2c(OC[C@@H]3CC(F)(F)C(=O)N3)ncc(-c3cnn(C4CCNCC4)c3)c2cc1C(N)=O [Compound I-75, (S)-1-((4,4-difluoro-5-oxopyrrolidin-2-yl)methoxy)-7-isopropoxy-4-(1-(piperidin-4-yl)-1H-pyrazol-4-yl)isoquinoline-6-carboxamide] | 4.58 µM | 85.4 µM | 4 nM | 6.64 µM |  |
| CC(C)Oc1cc2c(O[C@@H]3CCCN(C(=O)CC#N)C3)ncc(C#C[C@H]3C[C@@H](N(C)C)C3)c2cc1C(N)=O [Compound I-106, 1-(((R)-1-(2-cyanoacetyl)piperidin-3-yl)oxy)-4-((cis-3-(dimethylamino)cyclobutyl)ethynyl)-7-isopropoxyisoquinoline-6-carboxamide] | 0.0535 µM | 0.436 µM | 3.2 nM | 0.363 µM |  |
| CC(C)Oc1cc2c(OC[C@@H]3CC(F)(F)C(=O)N3)ncc(-c3cnn(C4CC4)c3)c2cc1C(N)=O [Compound I-67, (S)-4-(1-cyclopropyl-1H-pyrazol-4-yl)-1-((4,4-difluoro-5-oxopyrrolidin-2-yl)methoxy)-7isopropoxyisoquinoline-6-carboxamide] | 0.593 µM | 0.608 µM | 6.3 nM | 0.0472 µM |  |
| CC(C)Oc1cc2c(OC[C@@H]3CCC(=O)N3)ncc(-c3cnn(CCC4CCOCC4)c3)c2cc1C(N)=O [Compound I-37, (S)-7-isopropoxy-1-((5-oxopyrrolidin-2-yl)methoxy)-4-(1-(2-(tetrahydro-2H-pyran-4-yl)ethyl)-1H-pyrazol-4-yl)isoquinoline-6-carboxamide] | 0.296 µM | 1.34 µM | 13.7 nM | 0.324 µM |  |
| CC(C)Oc1cc2c(OC[C@@H]3CCC(=O)N3)ncc(C#CC3CCOCC3)c2cc1C(N)=O [Compound I-6, (S)-7-isopropoxy-1-((5-oxopyrrolidin-2-yl)methoxy)-4-((tetrahydro-2H-pyran-4-yl)ethynyl)isoquinoline-6-carboxamide] | 0.334 µM | 0.195 µM | 5.1 nM | 0.199 µM |  |
| CC(C)Oc1cc2c(OC[C@@H]3CC(F)(F)C(=O)N3)ncc(C#CC3CCNCC3)c2cc1C(N)=O [Compound I-55, (S)-1-((4,4-difluoro-5-oxopyrrolidin-2-yl)methoxy)-7-isopropoxy-4-(piperidin-4-ylethynyl)isoquinoline-6-carboxamide] | 1.22 µM | 4 µM | 3.5 nM | 1.2 µM |  |
| CC(C)Oc1cc2c(OC[C@@H]3CC(F)(F)C(=O)N3)ncc(C#CC3(O)CCCC3)c2cc1C(N)=O [Compound I-48, (S)-1-((4,4-difluoro-5-oxopyrrolidin-2-yl)methoxy)-4-((1-hydroxycyclopentyl)ethynyl)-7-isopropoxyisoquinoline-6-carboxamide] | 0.12 µM | 0.165 µM | 4.4 nM | 0.0569 µM |  |
| CC(C)Oc1cc2c(O[C@@H]3CCCN(C(=O)CC#N)C3)ncc(C#CCC3CCOCC3)c2cc1C(N)=O [Compound I-90, (R)-1-((1-(2-cyanoacetyl)piperidin-3-yl)oxy)-7-isopropoxy-4-(3-(tetrahydro-2H-pyran-4-yl)prop-1-yn-1-yl)isoquinoline-6-carboxamide] | 0.616 µM | 1.42 µM | 20.5 nM | 0.433 µM |  |
